Patent US9637491B2, “Pyrazolo[4,3-D]pyrimidines as kinase inhibitors” (Origenis GmbH, priority 2012, dated 2017)

Target: T1, SYK kinase (Homo sapiens, UniProt P43405)
T1 construct: purchased Invitrogen, Carlsbad
Experiment: SYK assay (OMNIA Kinase Assay, Invitrogen)
Assay type: biochemical
Conditions: SYK Activities; 1 mM ATP, 10 μM Omnia Peptide Substrate Tyr 7, 30° C.
Method in brief: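 SYK was added last to start phosphorylation of a chelation-enhanced SOX peptide substrate (10 μM) in the presence of 1 mM ATP and 0.2 mM DTT at 30° C. Kinetic readings at λex 360/λem 485 nm over 30 min gave velocities, fitted sigmoidally against compound concentration to give IC50.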

Row | SMILES | IC50 [nM]
1 | CC(=O)N1CCN(c2ccc(Nc3nc(C4CCC4)nc4cn[nH]c34)cc2)CC1 [Example 192, 1-(4-(4-((5-cyclobutyl-1H-pyrazolo[4,3-d]pyrimidin-7-yl)amino)phenyl)piperazin-1-yl)ethan-1-one] | < 10
2 | OCCn1cc(Nc2nc(-c3ccco3)nc3cn[nH]c23)cn1 [Example 239, 2-(4-((5-(furan-2-yl)-1H-pyrazolo[4,3-d]pyrimidin-7-yl)amino)-1H-pyrazol-1-yl)ethan-1-ol] | < 10
3 | CC(=O)N1CCN(c2ccc(Nc3nc(-c4cnn(C)c4)nc4cn[nH]c34)cc2)CC1 [Example 187, 1-(4-(4-((5-(1-methyl-1H-pyrazol-4-yl)-1H-pyrazolo[4,3-d]pyrimidin-7-yl)amino)phenyl)piperazin-1-yl)ethan-1-one] | 10 to 100
4 | COCCn1cc(Nc2nc(-c3ccoc3)nc3cn[nH]c23)cn1 [Example 199, 5-(furan-3-yl)-N-(1-(2-methoxyethyl)-1H-pyrazol-4-yl)-1H-pyrazolo[4,3-d]pyrimidin-7-amine] | 100 to 1000
5 | CC(C)(C)N1CCC(n2cc(Nc3nc(C4CC4)nc4cn[nH]c34)cn2)CC1 [Example 328, N-(1-(1-(tert-butyl)piperidin-4-yl)-1H-pyrazol-4-yl)-5-cyclopropyl-1H-pyrazolo[4,3-d]pyrimidin-7-amine] | < 10
6 | CC(=O)N1CCN(c2ccc(Nc3nc(C4(C)CC4)nc4cn[nH]c34)cc2)CC1 [Example 100, 1-(4-(4-((5-(1-methylcyclopropyl)-1H-pyrazolo[4,3-d]pyrimidin-7-yl)amino)phenyl)piperazin-1-yl)ethan-1-one] | 100 to 1000
7 | COc1cc(Nc2nc(-c3c(F)cccc3F)nc3cn[nH]c23)ccc1N1CCOCC1 [Example 12, 5-(2,6-difluorophenyl)-N-(3-methoxy-4-morpholinophenyl)-1H-pyrazolo[4,3-d]pyrimidin-7-amine] | < 10
8 | Cc1ccsc1-c1nc(Nc2ccc(N3CCOCC3)cc2)c2[nH]ncc2n1 [Example 52, 5-(3-methylthiophen-2-yl)-N-(4-morpholinophenyl)-1H-pyrazolo[4,3-d]pyrimidin-7-amine] | 10 to 100
9 | CC(=O)N1CCN(c2ccc(Nc3nc(-c4ccoc4)nc4cn[nH]c34)cc2)CC1 [Example 96, 1-(4-(4-((5-(furan-3-yl)-1H-pyrazolo[4,3-d]pyrimidin-7-yl)amino)phenyl)piperazin-1-yl)ethan-1-one] | 10 to 100
10 | CC(C)n1cc(Nc2nc(C3CCC3)nc3cn[nH]c23)cn1 [Example 223, 5-cyclobutyl-N-(1-isopropyl-1H-pyrazol-4-yl)-1H-pyrazolo[4,3-d]pyrimidin-7-amine] | < 10
11 | COc1ccc(Nc2nc(-c3sccc3C)nc3cn[nH]c23)cc1OC [Example 51, N-(3,4-dimethoxyphenyl)-5-(3-methylthiophen-2-yl)-1H-pyrazolo[4,3-d]pyrimidin-7-amine] | 10 to 100
12 | N#CCn1cc(Nc2nc(-c3ccoc3)nc3cn[nH]c23)cn1 [Example 241, 2-(4-((5-(furan-3-yl)-1H-pyrazolo[4,3-d]pyrimidin-7-yl)amino)-1H-pyrazol-1-yl)acetonitrile] | < 10
13 | OCCn1cc(Nc2nc(-c3ncco3)nc3cn[nH]c23)cn1 [Example 253, 2-(4-((5-(oxazol-2-yl)-1H-pyrazolo[4,3-d]pyrimidin-7-yl)amino)-1H-pyrazol-1-yl)ethan-1-ol] | 100 to 1000
14 | c1cc(N2CCOCC2)ccc1Nc1nc(C2CC2)nc2cn[nH]c12 [Example 18, 5-cyclopropyl-N-(4-morpholinophenyl)-1H-pyrazolo[4,3-d]pyrimidin-7-amine] | < 10
15 | CC(=O)N1CCN(c2ccc(Nc3nc(C(C)C)nc4cn[nH]c34)cc2)CC1 [Example 180, 1-(4-(4-((5-isopropyl-1H-pyrazolo[4,3-d]pyrimidin-7-yl)amino)phenyl)piperazin-1-yl)ethan-1-one] | 100 to 1000
16 | COc1cc(Nc2nc(-c3ccon3)nc3cn[nH]c23)ccc1N1CCOCC1 [Example 76, 5-(isoxazol-3-yl)-N-(3-methoxy-4-morpholinophenyl)-1H-pyrazolo[4,3-d]pyrimidin-7-amine] | 100 to 1000

More lines, now with the values ahead:

Row | IC50 [nM] | SMILES
17 | 100 to 1000 | c1ccc(-n2cc(Nc3nc(-c4ccoc4)nc4cn[nH]c34)cn2)nc1 [Example 484, 5-(furan-3-yl)-N-(1-(pyridin-2-yl)-1H-pyrazol-4-yl)-1H-pyrazolo[4,3-d]pyrimidin-7-amine]
18 | 10 to 100 | CC(C)Cn1cc(Nc2nc(-c3cccc(S(N)(=O)=O)c3)nc3cn[nH]c23)cn1 [Example 428, 3-(7-((1-isobutyl-1H-pyrazol-4-yl)amino)-1H-pyrazolo[4,3-d]pyrimidin-5-yl)benzenesulfonamide]
19 | 100 to 1000 | COc1ccc(Nc2nc(-c3c(F)cccc3F)nc3cn[nH]c23)cc1NC(C)=O [Example 523, N-(5-((5-(2,6-difluorophenyl)-1H-pyrazolo[4,3-d]pyrimidin-7-yl)amino)-2-methoxyphenyl)acetamide]
20 | 10 to 100 | COc1cccc(-c2nc(Nc3cnn(C4CCOCC4)c3)c3[nH]ncc3n2)c1 [Example 409, 5-(3-methoxyphenyl)-N-(1-(tetrahydro-2H-pyran-4-yl)-1H-pyrazol-4-yl)-1H-pyrazolo[4,3-d]pyrimidin-7-amine]
21 | 100 to 1000 | COCC(COC)n1cc(Nc2nc(-c3ccco3)nc3cn[nH]c23)cn1 [Example 455, N-(1-(1,3-dimethoxypropan-2-yl)-1H-pyrazol-4-yl)-5-(furan-2-yl)-1H-pyrazolo[4,3-d]pyrimidin-7-amine]
22 | < 10 | c1ccc2sc(-c3nc(Nc4cnn(C5CC5)c4)c4[nH]ncc4n3)nc2c1 [Example 410, 5-(benzo[d]thiazol-2-yl)-N-(1-cyclopropyl-1H-pyrazol-4-yl)-1H-pyrazolo[4,3-d]pyrimidin-7-amine]
23 | 10 to 100 | CN1C(=O)COc2ccc(Nc3nc(-c4ccoc4)nc4cn[nH]c34)cc21 [Example 488, 6-((5-(furan-3-yl)-1H-pyrazolo[4,3-d]pyrimidin-7-yl)amino)-4-methyl-2H-benzo[b][1,4]oxazin-3(4H)-one]
24 | < 10 | CC(C)(C)N1CCC(n2cc(Nc3nc(-c4nc5ccccc5s4)nc4cn[nH]c34)cn2)CC1 [Example 411, 5-(benzo[d]thiazol-2-yl)-N-(1-(1-(tert-butyl)piperidin-4-yl)-1H-pyrazol-4-yl)-1H-pyrazolo[4,3-d]pyrimidin-7-amine]
25 | 100 to 1000 | O=C(C1CC1)N1CCCc2ccc(Nc3nc(C4CC4)nc4cn[nH]c34)cc21 [Example 503, cyclopropyl(7-((5-cyclopropyl-1H-pyrazolo[4,3-d]pyrimidin-7-yl)amino)-3,4-dihydroquinolin-1(2H)-yl)methanone]
26 | 100 to 1000 | COc1cc(Nc2nc([C@H]3C[C@@H]3c3ccccc3)nc3cn[nH]c23)ccc1N1CCOCC1 [Example 508, N-(3-methoxy-4-morpholinophenyl)-5-((1S,2S)-2-phenylcyclopropyl)-1H-pyrazolo[4,3-d]pyrimidin-7-amine]
27 | 100 to 1000 | COCCn1ncc(Nc2nc(-c3ccco3)nc3cn[nH]c23)c1F [Example 403, N-(5-fluoro-1-(2-methoxyethyl)-1H-pyrazol-4-yl)-5-(furan-2-yl)-1H-pyrazolo[4,3-d]pyrimidin-7-amine]
28 | 10 to 100 | c1csc(-c2nc(Nc3cnn(C4CCOCC4)c3)c3[nH]ncc3n2)c1 [Example 430, N-(1-(tetrahydro-2H-pyran-4-yl)-1H-pyrazol-4-yl)-5-(thiophen-2-yl)-1H-pyrazolo[4,3-d]pyrimidin-7-amine]
